These results are taken from patent US7601805B2, “Photoprotein with improved bioluminescence” (AXXAM S.R.L., priority 2002, dated 2009).

Assay [1] has as its system endogenous ATP receptor expressed by CHO-K1 cell. The assay can be described thus: ATP-stimulated light emission in CHO-K1 cells transfected with Photin DNA. Particulars: two different concentrations of ATP (FIG. 3A). Format: cell-based. How it is done:
Cell transfection, harvesting, and Photin expression were performed as described in Example 1. Cells were treated with two different concentration of ATP. (B) The CHO-K1 cells transfected with Obelin DNA were used as positive control. Luminescence is expressed in RLU (relative light units).
3.1 Photin-expressing clones have been obtained by transfection of CHO-K1 cells (Materials and Methods). Two days after transfection the cells were trypsinized and diluted 10 or 100 times. Once the cells were grown up to well isolated colonies, the colonies were transferred to new plates and selected on the basis of their functional response (luminescent signal) to different concentration of ATP, which is known to stimulate the CHO endogenous receptor and to rise the cytoplasmic Ca^++ concentration. At the end of each experiment, cells were lysed by perfusion of a solution containing TritonX-100 and CaCl2. The active photoprotein was reconstituted incubating the cells with 10 μM coelenterazine diluted in PBS containing 2 mM calcium, in the dark at 37° C. in a 5% CO2 atmosphere for 3 hrs. For light emission measurement, cells were lysed in the presence of calcium and the emitted luminescence recorded. […] To detect changes in calcium concentrations, 10, 50 and 100 μM ATP were injected and the kinetics of calcium response determined. […]

The target of assay [2] is T1, rat VR1 capsaicin receptor (Rattus norvegicus, UniProt O35433).
T1 construct: expressed in transfected cells; host or cells: CHO
The assay can be described thus: Capsaicin-stimulated flash luminescence in CHO cells expressing Apophotin and rat VR1. The format is cell-based. Particulars: 10 and 50 μM capsaicin; CHO cells with Apophotin and rat VR1 (FIG. 5). As for the experimental part:
The specific agonist, capsaicin, was used at a concentration of 10 and 50 μM.
3.3 CHO cell lines expressing both Apophotin and the rat VR1 capsaicin receptor—a calcium-permeable ion channel—were grown to 80-95% confluence in tissue culture flasks and harvested by trypsinization. Cells were dispensed at 10,000 cells/well in a 96-well white plates in growth medium and incubated overnight at 37° C. in a humidified incubator at 5% CO2. For luminescence experiments, the cells were loaded with coelenterazine 10 μM for 3 h at 37° C., 5% CO2. Calcium response was stimulated by addition of 10 and 50 μM capsaicin to each well. The kinetics of flash luminescence was followed using Labsystem Luminoskan Ascent, which injects reagents and records light emission from each single well.

Where only a bound is given, the exact number is not on record here.

T1 sequence (O35433 whole entry): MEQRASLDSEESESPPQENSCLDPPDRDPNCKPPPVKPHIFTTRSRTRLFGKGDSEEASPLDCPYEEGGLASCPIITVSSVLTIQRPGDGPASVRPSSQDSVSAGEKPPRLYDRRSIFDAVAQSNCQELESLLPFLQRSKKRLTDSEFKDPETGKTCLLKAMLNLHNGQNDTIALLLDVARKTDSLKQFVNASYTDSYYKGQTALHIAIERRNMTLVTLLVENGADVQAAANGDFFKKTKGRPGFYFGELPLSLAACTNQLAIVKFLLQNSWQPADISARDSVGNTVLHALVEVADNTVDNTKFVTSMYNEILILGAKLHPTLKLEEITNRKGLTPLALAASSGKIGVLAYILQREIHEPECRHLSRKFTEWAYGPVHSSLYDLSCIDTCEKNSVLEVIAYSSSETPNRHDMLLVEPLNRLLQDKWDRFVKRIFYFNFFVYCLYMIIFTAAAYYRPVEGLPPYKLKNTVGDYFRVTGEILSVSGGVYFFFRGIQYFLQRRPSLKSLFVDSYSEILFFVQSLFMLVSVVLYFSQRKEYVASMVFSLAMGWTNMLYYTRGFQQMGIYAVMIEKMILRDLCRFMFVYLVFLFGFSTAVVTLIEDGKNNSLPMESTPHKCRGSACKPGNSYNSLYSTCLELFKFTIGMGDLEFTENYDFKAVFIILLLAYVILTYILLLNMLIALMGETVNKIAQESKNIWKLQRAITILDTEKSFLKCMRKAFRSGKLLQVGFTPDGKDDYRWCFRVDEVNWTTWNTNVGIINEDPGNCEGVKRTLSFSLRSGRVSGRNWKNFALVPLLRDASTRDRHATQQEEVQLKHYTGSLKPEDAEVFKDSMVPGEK

With `Nc1ncnc2c1ncn2[C@@H]1O[C@H](COP(=O)(O)OP(=O)(O)OP(=O)(O)O)[C@@H](O)[C@H]1O` [ATP], the “light emission upon stimulation of the endogenous ATP receptor” value in assay [1] was “dose dependent light emission”.

For the compound `COc1cc(CNC(=O)CCCC/C=C/C(C)C)ccc1O` [capsaicin], in assay [2], the “time of peak level of luminescence signal” value is recorded as “about 10 seconds”; the “time within which the rapid and transient luminescence signal occurred” value was at most 30 s.
